Source: US8336545B2, “Methods and systems for operating an aerosol generator” (priority 2001, dated 2012)
Read-outs that look alike come from different tables or passages of the source.

Columns and labels:
[1] = tested on: Gram-negative, pneumonia-causing bacteria; conditions: locally in TA; cited from earlier work
Gram-negative pneumonia [2] = type: in vivo, patients
Method: A study, using a double-blind, placebo-controlled protocol, was conducted of nebulized amikacin delivered using one or more embodiments of the pulmonary drug delivery system of the present invention in ventilated patients with Gram-negative pneumonia. The aerosol therapy was adjunctive to IV therapy per American Thoracic Society (ATS) guidelines. Patients were randomized equally to three study arms. Arm 1 patients received an aerosolized dose of 400 mg amikacin once daily, alternating with a placebo on a twelve hour schedule. Arm 2 patients received 400 mg of amikacin twice daily (i.e. […]). Patients in Arm 3 were randomized to two aerosol treatments of placebo every twelve hours. The placebo was Normal saline. Peak amikacin concentration was determined in serum collected 0.25, 1, 2, and 4 hours after delivery of the dose on days 1 and 3, and the data was used to calculate Cmax. Trough concentrations were determined daily 30 minutes prior to the first daily dose. A PDDS/ventilator circuit configuration was as described for Example B. The microprocessor was set to deliver aerosol during the first approximately 75% of the inspiration, to achieve aerosol drug deposition of 50-75% of the dose within approximately 45 to 60 minutes. Amikacin levels were monitored by daily blood sampling.
The embodiments of devices, apparatus and/or methods of the present invention thus reduce the number of antibiotics required systemically to achieve a therapeutic result.

Gram-negative pneumonia [3] = assay: Example C: clinical outcome, IV antibiotic days and tolerability; type: in vivo, patients; conditions: placebo group versus aerosol group, p=0.02
Method: (§1) A study, using a double-blind, placebo-controlled protocol, was conducted of nebulized amikacin delivered using one or more embodiments of the pulmonary drug delivery system of the present invention in ventilated patients with Gram-negative pneumonia. The aerosol therapy was adjunctive to IV therapy per American Thoracic Society (ATS) guidelines. In this study, sixty seven patients received at least one dose of aerosol medication. Patients were randomized equally to three study arms. Arm 1 patients received an aerosolized dose of 400 mg amikacin once daily, alternating with a placebo on a twelve hour schedule. Arm 2 patients received 400 mg of amikacin twice daily (i.e. […]). Patients in Arm 3 were randomized to two aerosol treatments of placebo every twelve hours. The placebo was Normal saline. The amikacin concentration was determined in TA collected 15 min and 1, 2, 4, 8 and 12 hours after delivery of the morning dose on Days 1 and 3. A PDDS/ventilator circuit configuration was as described for Example B. The microprocessor was set to deliver aerosol during the first approximately 75% of the inspiration, to achieve aerosol drug deposition of 50-75% of the dose, within approximately 45 to 60 minutes. Amikacin levels were monitored by daily blood sampling.

[4] = type: in vivo; conditions: all Arm 1 and 2 patients
Method: A study, using a double-blind, placebo-controlled protocol, was conducted of nebulized amikacin delivered using one or more embodiments of the pulmonary drug delivery system of the present invention in ventilated patients with Gram-negative pneumonia. The aerosol therapy was adjunctive to IV therapy per American Thoracic Society (ATS) guidelines. Such guidelines are fully set forth, for example, in the American Journal of Respiratory Critical Care Medicine, Vol 171, pages 388-416 (2005), incorporated by reference herein in its entirety. Twelve patients were randomized equally to three study arms: Arm 1 received an aerosolized dose of 400 mg amikacin once daily, and thereafter alternating every twelve hours with placebo. Arm 2 patients received 400 mg of amikacin twice daily (i.e. […]). Patients in Arm 3 were randomized to two aerosolized treatments of placebo every twelve hours. The placebo was Normal saline. […] Amikacin levels were monitored by daily blood sampling. […] The apparent volume of epithelial lining fluid (ELF) recovered by BAL was determined by using urea as an endogenous marker of dilution. The same day, the amikacin concentration was determined in tracheal aspirates (TA) collected 15 min and 1, 2, 4, 8 and 12 hours post aerosol delivery.

[5] = set-up: species or system patients; conditions: in vivo
Method: In this Example, the dose-response to aerosolized amikacin, administered in accordance with one or more embodiments of devices, apparatus and/or methods of the present invention was evaluated, as was the ability to deliver a predefined target multiple of an MIC for Gram-negative bacteria causing pneumonia, including, Pseudomonas species, in the tracheal aspirates (TA). […] Thus the desired multiple is 6,400 μg/mL.
as §1

[6] = 400 mg daily (N = 20), percent of patients
[7] = 400 mg twice daily (N = 16), count
[8] = 400 mg twice daily (N = 16), percent of patients

NCC[C@H](O)C(=O)N[C@@H]1C[C@H](N)[C@@H](O[C@H]2O[C@H](CN)[C@@H](O)[C@H](O)[C@H]2O)[C@H](O)[C@H]1O[C@H]1O[C@H](CO)[C@@H](O)[C@H](N)[C@H]1O [amikacin]
reference MIC value [1]: 256 µg/mL | mean IV antibiotics at end of treatment, aerosolized placebo relative to twice daily aerosolized amikacin (Gram-negative pneumonia [2]; 400 mg BID, end of treatment (mean of seven days)): about two | Total Number of Daily Antimicrobials (Gram-negative pneumonia [2]; 400 mg daily (N = 20)): 118 | Number of Patients With at Least One Daily Antimicrobial (Gram-negative pneumonia [2]; 400 mg daily (N = 20), count): 19 | patients with ANTIBACTERIALS FOR SYSTEMIC USE (Gram-negative pneumonia [2]; 400 mg daily (N = 20), count): 18 | Number of Patients With at Least One Daily Antimicrobial (Gram-negative pneumonia [2]; [6]): (95.0%) | patients with ANTIBACTERIALS FOR SYSTEMIC USE (Gram-negative pneumonia [2]; [6]): (90.0%) | Total Number of Daily Antimicrobials (Gram-negative pneumonia [2]; 400 mg twice daily (N = 16)): 75 | Number of Patients With at Least One Daily Antimicrobial (Gram-negative pneumonia [2]; [7]): 16 | patients with ANTIBACTERIALS FOR SYSTEMIC USE (Gram-negative pneumonia [2]; [7]): 16 | Number of Patients With at Least One Daily Antimicrobial (Gram-negative pneumonia [2]; [8]): (100.0%) | patients with ANTIBACTERIALS FOR SYSTEMIC USE (Gram-negative pneumonia [2]; [8]): (100.0%) | IV antibiotic days at the end of aerosol administration (Gram-negative pneumonia [3]): placebo group had statistically more IV antibiotic days then the aerosol group | amikacin levels versus highest MIC values [4]: exceeded the highest MIC values for pathogens causing Gram-negative pneumonia | TA levels of amikacin ([5]; human): exceeded 1,100 μg/mL | TA level as multiple of the reference MIC target value [5]: at least four | amikacin level versus highest MIC values [5]: exceeded the highest MIC values for most Gram negative pathogens causing pneumonia
